This passage reports IC50 results from BindingDB's records for patent US20240109930 (Idorsia Pharmaceuticals, 2024).

The structures appear in SMILES notation.

The target in one experiment is Galectin-3 (Homo sapiens, UniProt P17931). The experiment can be described thus: Inhibitory Activity Assay. The protocol:
(§1) Briefly, compounds are serially diluted in DMSO (working dilutions). ASF-coated 384well plates are supplemented with 22.8 μL/well of biotinylated hGal-3 or hGal-1 in assay buffer (i.e. 300-1000 ng/mL biotinylated hGal-3 or hGal-1) to which 1.2 μL of compound working dilutions are added and mixed. Plates are incubated for 3 hours at 4° C., then washed with cold assay buffer (3×50 uL), incubated for 1 hour with 25 μL/well of a streptavidin-peroxidase solution (diluted in assay buffer to 80 ng/mL) at 4° C., followed by further washing steps with assay buffer (3×50 uL). Finally, 25 μL/well of ABTS substrate is added.

The target in a further experiment is Galectin-1 (Homo sapiens, UniProt P09382). Nature of the experiment: Inhibitory Activity Assay. Here is the method:
as §1

Sequence of Galectin-1 (P09382 whole entry): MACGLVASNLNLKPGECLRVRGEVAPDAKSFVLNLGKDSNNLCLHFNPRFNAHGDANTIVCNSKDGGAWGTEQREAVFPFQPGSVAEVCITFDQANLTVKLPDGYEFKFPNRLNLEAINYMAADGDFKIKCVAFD
Sequence of Galectin-3 (P17931 whole entry): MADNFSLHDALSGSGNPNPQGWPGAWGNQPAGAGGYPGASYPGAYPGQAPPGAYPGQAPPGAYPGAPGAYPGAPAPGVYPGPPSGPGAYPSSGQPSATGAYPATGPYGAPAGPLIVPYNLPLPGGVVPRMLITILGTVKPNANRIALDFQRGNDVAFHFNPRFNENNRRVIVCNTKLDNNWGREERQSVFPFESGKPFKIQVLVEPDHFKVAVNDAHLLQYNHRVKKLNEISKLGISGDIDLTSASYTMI

What is called IC50 is the point on the concentration scale where inhibition reaches its midpoint. A higher IC50 goes with weaker potency in that assay. Consider `COC(=O)C(C)(C)n1cc(C[C@H]2OC(CO)=C(O)C(N3C[C@H](c4ccc(C)c(F)c4F)NN3)=C2OC)nn1` [US20240109930, Example 1.1.10.], for which the IC50 against Galectin-3 came out at 60 nM; against Galectin-1 it was 4370 nM.

`CO[C@@H]1[C@@H](n2cc(-c3ccc(Cl)c(F)c3F)nn2)[C@@H](O)[C@@H](CO)O[C@@H]1Cc1cn(C2COCCC2(F)F)nn1` (some centres undefined) [US20240109930, Example 2.1.73.A] yielded an IC50 on Galectin-3 of 30 nM.

Consider `COC(=O)C(C)(C)n1cc(C[C@H]2OC(CO)=C(O)C(N3C[C@H](c4ccc(Cl)c(F)c4F)NN3)=C2OC)nn1` [US20240109930, Example 2.1.10.], for which the 50% inhibitory concentration (IC50) against Galectin-3 was determined as 60 nM; on Galectin-1, 2260 nM.

With `CO[C@@H]1[C@@H](n2cc(-c3ccc(Cl)c(F)c3F)nn2)[C@@H](O)[C@@H](CO)O[C@@H]1Cn1cc([C@H]2C[C@@H](NC(=O)OC(C)(C)C)C2)nn1` [US20240109930, Example 2.2.86.], the IC50 came out at 60 nM against Galectin-3 and 2570 nM on Galectin-1.

For `CO[C@@H]1[C@@H](n2cc(-c3ccc(Cl)c(F)c3F)nn2)[C@@H](O)[C@@H](CO)O[C@@H]1Cc1cn([C@@H]2CC[C@H]2F)nn1` [US20240109930, Example 2.1.88.C], the 50% inhibitory concentration (IC50) at Galectin-3 is 50 nM.

Regarding `CO[C@@H]1[C@@H](n2cc(-c3ccc(Cl)c(F)c3F)nn2)[C@@H](O)[C@@H](CO)O[C@@H]1Cn1cc(C2(CF)CC2)nn1` [US20240109930, Example 2.2.46.], the values for the IC50 against Galectin-3 and on Galectin-1 were 60 nM and 2300 nM, respectively.

On to `CCC1(c2cn(C[C@H]3O[C@H](CO)[C@H](O)[C@H](n4cc(-c5ccc(Cl)c(F)c5F)nn4)[C@H]3OC)nn2)COC1` [US20240109930, Example 2.2.38.], for which the IC50 on Galectin-3 worked out at 30 nM; on Galectin-1, 1400 nM.

As for `COC1=C(n2cc(-c3ccc(C#N)c(F)c3F)nn2)C(O)=C(CO)O[C@@H]1C[C@H]1CN(C2(C(F)F)CCC2)NN1` [US20240109930, Example 5.1.43.], the IC50 against Galectin-3 stood at 30 nM; against Galectin-1 it was 1320 nM.
